The experiment relates to IL-1β release upon NLRP3 activation in peripheral blood mononuclear cells (PBMC). Description: PBMC IC50 determination assay (IL-1β release, Protocol A ELISA / Protocol B HTRF). Format: cell-based. To be noted: Homo sapiens; PBMC primed with LPS 3 h, compound 30 min, stimulated with ATP (5 mM) or nigericin (10 μM) 1 h; IL-1β in media; read-out: Average PBMC IC50. The procedure:
The compounds of the present disclosure were tested for their inhibitory activity against IL-1β release upon NLRP3 activation in peripheral blood mononuclear cells (PBMC).
Isolated cells were seeded into the wells of a 96-well plate and incubated for 3 h with lipopolysaccharide (LPS). Following medium exchange, the compounds of the present disclosure were added (a single compound per well) and the cells were incubated for 30 min. Next, the cells were stimulated either with ATP (5 mM) or nigericin (10 μM) for 1 h and the cell culture media from the wells were collected for further analysis.
The release of IL1-β into the media was determined by a quantitative detection of IL-1β in the media using an IL-1β enzyme-linked immunosorbent assay (ELISA) Ready-SET-Go!, eBioscience cat. […] Subsequently, plates were blocked with blocking buffer for 1 h at room temperature (rt) and after washing with a buffer (PBS with 0.05% Tween-20) incubated with protein standard and culture media. […] Plates were washed and incubated with HRP-streptavidin for 30 min at rt and washed again. The signal was developed after addition of 3,3′,5,5′-tetramethylbenzidine-peroxidase (TMB) until colour appeared and the reaction was stopped by 2 M H2SO4. A microplate spectrophotometer (BioTek) was used to detect signals with 450 nm. The detection range of IL-1β ELISA was 2-150 ng/ml.
Isolated cells were seeded into the wells (280,000 cells/well) of a 96-well plate and incubated for 3 h with lipopolysaccharide (LPS, 1 μg/ml diluted 1000× from a 1 mg/ml stock solution). The compounds of the present disclosure were added (a single compound per well) and the cells were incubated for 30 min. Next, the cells were stimulated with ATP (5 mM final concentration diluted 20× from a 100 mM stock solution) for 1 h and the cell culture media from the wells were collected for further analysis.
The release of IL-1β into the media was determined by quantitative detection of IL-1β in the media using HTRF®, CisBio cat. No. 62HIL1BPEH. Briefly, cell culture supernatant were dispensed directly into the assay plate containing antibodies labelled with the HTRF® donor and acceptor. A microplate spectrophotometer (BMG) was used to detect signals at 655 nm and 620 nm. The detection range of IL-1β HTRF® was 39-6500 pg/ml.
(In general: An ELISA detects its analyte on a solid surface through an enzyme-linked reagent.)

pIC50: −log10 of the molar value. Bounds are passed on as bounds.

The pIC50 is −log10 of the IC50, conventionally taken in molar units. Turning to `C[C@@H]1CC(N(c2cnn(C)c2)S(=O)(=O)NC(=O)Nc2c3c(cc4c2CCC4)CCC3)CCO1` (some centres unmarked) [Compound 85], the pIC50 is more than 6.00. For `Cc1ncc(N(C2CCOCC2)S(=O)(=O)NC(=O)Nc2c3c(cc4c2CCC4)CCC3)cn1` [Compound 86] the value was more than 6.00. With `Cc1noc(N(C2CCOCC2)S(=O)(=O)NC(=O)Nc2c3c(cc4c2CCC4)CCC3)c1C` [Compound 87] the figure was more than 6.00; with `CC1CCCC(C)C1NC(=O)NS(=O)(=O)N(c1cnn(C)c1)C1CCOCC1` (centres unmarked) [Compound 88], more than 6.00; with `CC(C)c1cc(Cl)cc(NC(=O)NS(=O)(=O)N(c2cnn(C)c2)C2CCOCC2)c1` [Compound 89], 5.52 to 6.00.

As for `CCOc1cc(NC(=O)NS(=O)(=O)N(c2cnn(C)c2)C2CCOCC2)cc(OCC)c1` [Compound 90], the pIC50 is 4.30 to 5.00. With `CN1CCCC(N(c2cnn(C)c2)S(=O)(=O)NC(=O)Nc2cc(Cl)cc(Cl)c2)C1` (centres unmarked) [Compound 91] the figure was more than 6.00; with `Cn1cc(N(C2CCOCC2)S(=O)(=O)NC(=O)Nc2cc(Cl)cc(OC(F)(F)F)c2)cn1` [Compound 92], 5.52 to 6.00. For the molecule `COc1cc(Cl)cc(NC(=O)NS(=O)(=O)N(c2cnn(C)c2)C2CCOCC2)c1` [Compound 93], the pIC50 is more than 6.00. Consider `Cn1cc(N(C2CCOCC2)S(=O)(=O)NC(=O)Nc2cc(Cl)cc(Cl)c2F)cn1` [Compound 94], for which the pIC50 is 5.52 to 6.00. As to `Cn1ccc(N(C2CCOCC2)S(=O)(=O)NC(=O)Nc2c3c(cc4c2CCC4)CCC3)c1` [Compound 95], the negative logarithm of the IC50 (pIC50) is more than 6.00. For `Cn1ncc(N(C2CCOCC2)S(=O)(=O)NC(=O)Nc2c3c(cc4c2CCC4)CCC3)n1` [Compound 96], the pIC50 is more than 6.00.

On to `CCc1cc(NC(=O)NS(=O)(=O)N(c2cnn(C)c2)C2CCCN(C)C2)cc(C(F)(F)F)c1` (centres unmarked) [Compound 97], for which the pIC50 was more than 6.00.

With `CC(C)Cc1cc(Cl)cc(NC(=O)NS(=O)(=O)N(c2cnn(C)c2)C2CCOCC2)c1` [Compound 98], the negative-log IC50 (pIC50) is 5.52 to 6.00. For `Cc1nn(C)cc1N(C1CCOCC1)S(=O)(=O)NC(=O)Nc1c2c(cc3c1CCC3)CCC2` [Compound 99] the value was more than 6.00; for `Cc1ncc(N(C2CCOCC2)S(=O)(=O)NC(=O)Nc2c3c(cc4c2CCC4)CCC3)c(C)n1` [Compound 100], 5.52 to 6.00; for `CC(C)c1cc(Cl)cc(NC(=O)NS(=O)(=O)N(c2cnn(C)c2)C2CCCN(C)C2)c1` (centres unmarked) [Compound 101], more than 6.00. Consider `CCc1cc(NC(=O)NS(=O)(=O)N(C[C@@H]2CCCN2C)c2cnn(C)c2)cc(C(F)(F)F)c1` [Compound 102], for which the negative-log IC50 (pIC50) is more than 6.00. In the case of `Cc1nn(C)cc1N(C1CCCN(C)C1)S(=O)(=O)NC(=O)Nc1c2c(cc3c1CCC3)CCC2` (centres unmarked) [Compound 103], the pIC50 was more than 6.00.

For `CC(C)c1ncc(N(C2CCOCC2)S(=O)(=O)NC(=O)Nc2c3c(cc4c2CCC4)CCC3)cn1` [Compound 104], the pIC50 was more than 6.00. Turning to `CCC(C)c1cc(Cl)cc(NC(=O)NS(=O)(=O)N(c2cnn(C)c2)C2CCOCC2)c1` (centres unmarked) [Compound 105], the negative logarithm of the IC50 (pIC50) is more than 6.00. Consider `Cn1cc(N(C2CCOCC2)S(=O)(=O)NC(=O)Nc2cc(Cl)cc(OCC(F)(F)F)c2)cn1` [Compound 106], for which the pIC50 is more than 6.00.

For the molecule `CN1CCC[C@H]1CN(c1cnn(C)c1)S(=O)(=O)NC(=O)Nc1c2c(cc3c1CCC3)CCC2` [Compound 107], the pIC50 was more than 6.00.

Regarding `Cc1csc(N(C2CCOCC2)S(=O)(=O)NC(=O)Nc2c3c(cc4c2CCC4)CCC3)n1` [Compound 108], the pIC50 was more than 6.00.

With `CCc1cc(N(C2CCOCC2)S(=O)(=O)NC(=O)Nc2c3c(cc4c2CCC4)CCC3)on1` [Compound 109], the pIC50 was more than 6.00. In the case of `CN1CCC[C@@H]1CN(c1cnn(C)c1)S(=O)(=O)NC(=O)Nc1c2c(cc3c1CCC3)CCC2` [Compound 110], the pIC50 was more than 6.00.

`CN1CCC1CN(c1cnn(C)c1)S(=O)(=O)NC(=O)Nc1c2c(cc3c1CCC3)CCC2` (centres unmarked) [Compound 111]: the pIC50 is more than 6.00. For `CN1CCC[C@@H]1CN(c1cnn(C)c1)S(=O)(=O)NC(=O)Nc1cc(Cl)cc(Cl)c1` [Compound 112] the value was more than 6.00; for `Cc1cc(N(C2CCOCC2)S(=O)(=O)NC(=O)Nc2c3c(cc4c2CCC4)CCC3)sn1` [Compound 113], more than 6.00. `CCc1cc(NC(=O)NS(=O)(=O)N(C[C@H]2CCCN2C)c2cnn(C)c2)cc(C(F)(F)F)c1` [Compound 114]: the pIC50 was more than 6.00. With `CCCCc1cc(Cl)cc(NC(=O)NS(=O)(=O)N(c2cnn(C)c2)C2CCOCC2)c1` [Compound 115], the pIC50 is more than 6.00. For `Cc1noc(N(C2CCCN(C)C2)S(=O)(=O)NC(=O)Nc2c3c(cc4c2CCC4)CCC3)c1C` (centres unmarked) [Compound 116] the value was more than 6.00.
